# Where two headings read alike, the source gives them in different places.
# Experiments:
# [1] = Arachidonic acid plus zinc and L-histidine in drinking water for 14 days in ob/ob and lean mice (Example 2, Table 3); assay type: in vivo; details: for Body Weight Gain / Food Intake / Water Intake: 14 days, mean ± SEM
# Procedure: Eight week old male C57BL/6J-obese ob/ob mice and their lean wild-type littermates were randomly divided into five groups of five mice and treated with the following levels of AA in drinking water: (i) 0 mg AA/l; (ii) 10 mg AA/l; (iii) 20 mg AA/l; (iv) 50 mg AA/l; or (v) 100 mg AA/l. 10 mg zinc and 0.5 mg L-histidine/l were also included at each level of AA described above. The treatment solutions were replaced with freshly prepared solutions every other day during the 2-week treatment period. Body weight, and food and water intake were measured every other day in the morning, beginning the first day of treatment.
# [2] = Water intake in G-K rats treated with AA plus zinc (Example 3, FIG. 10); assay type: in vivo; details: One-month old G-K rats, 2 weeks
# From the text: (FIG. 10). Thus, water intake was reduced in rats with all treatments containing zinc relative to DW-treated rats, but not with the AA-only treatment.
# [3] = tested on: intestinal zinc absorption; details: normal (non-diabetic) rats, oral, cited from earlier work
# [4] = tested on: intestinal zinc transport; details: cited from earlier work
# [5] = cited from earlier work
# [6] = cited from earlier work; remark: listed apart in the source
# [7] = CHP plus zinc and L-histidine in drinking water for 21 days in ob/ob and lean mice (Example 5, Table 1); assay type: in vivo; details: for Body Weight Gain / Food Intake / Water Intake: 21 days, mean ± SEM
# Procedure: Ob/ob and lean mice were randomly divided into four groups and treated with drinking water containing either 0, 0.5, 1.0, or 1.5 mg CHP/L plus 10 mg zinc and 0.5 mg L-histidine/L. Drinking water containing test substances was prepared every other day with freshly prepared solutions. During the testing non-fasting blood glucose concentrations, food and water intake, and body weight were measured every other day in the morning. Non-fasting plasma insulin concentrations and three-hour average blood glucose concentrations were determined at the end of the three-week treatment period.
# [8] = Plasma insulin levels in G-K rats treated with zinc and CHP (Example 1, Table 2); assay type: in vivo; details: for Plasma Insulin Levels (mean ± SEM): 6-month old G-K rats
# From the text: However, higher doses of CHP decreased plasma insulin levels. (Table 2)
# [9] = cited from earlier work; remark: listed apart in the source
# [10] = humans; CHP intake; cited from earlier work
# [11] = Body weight and growth rate of G-K rats treated with zinc or zinc plus CHP (FIGS. 1, 2, 11-13); assay type: in vivo; details: one month old (young) G-K rats; FIG. 2
# From the text: I believe that CHP is effective in maintaining body weight control even after the cessation of the treatment.
# [12] = Food and water intake in G-K rats treated with zinc or zinc plus CHP (FIGS. 6, 8); assay type: in vivo
# [13] = Body weight and water intake in S-D rats treated with zinc or zinc plus CHP (FIGS. 4, 5, 9); details: 8-month old S-D rats; FIG. 9
# [14] = Lean mice, 10 mg/L AA plus 10 mg/L zinc and 0.5 mg/L L-histidine
# [15] = Lean mice, 20 mg/L AA plus 10 mg/L zinc and 0.5 mg/L L-histidine
# [16] = Lean mice, 50 mg/L AA plus 10 mg/L zinc and 0.5 mg/L L-histidine
# [17] = Lean mice, 100 mg/L AA plus 10 mg/L zinc and 0.5 mg/L L-histidine
# [18] = Ob/ob mice, 10 mg/L AA plus 10 mg/L zinc and 0.5 mg/L L-histidine
# [19] = Ob/ob mice, 20 mg/L AA plus 10 mg/L zinc and 0.5 mg/L L-histidine, p < 0.05 vs 0 mg/l group
# [20] = Ob/ob mice, 50 mg/L AA plus 10 mg/L zinc and 0.5 mg/L L-histidine
# [21] = Ob/ob mice, 100 mg/L AA plus 10 mg/L zinc and 0.5 mg/L L-histidine
# [22] = Lean mice, 0.5 mg/L CHP plus 10 mg/L zinc and 0.5 mg/L L-histidine
# [23] = Lean mice, 1.0 mg/L CHP plus 10 mg/L zinc and 0.5 mg/L L-histidine
# [24] = Lean mice, 1.5 mg/L CHP plus 10 mg/L zinc and 0.5 mg/L L-histidine
# [25] = Ob/ob mice, 0.5 mg/L CHP plus 10 mg/L zinc and 0.5 mg/L L-histidine
# [26] = Ob/ob mice, 1.0 mg/L CHP plus 10 mg/L zinc and 0.5 mg/L L-histidine
# [27] = Ob/ob mice, 1.5 mg/L CHP plus 10 mg/L zinc and 0.5 mg/L L-histidine
smiles,measurement,setting,value
"CCCCC/C=C\C/C=C\C/C=C\C/C=C\CCCC(=O)O [AA, arachidonic acid]",Body Weight Gain,[1]; [14],1.0 ± 0.2 g
same,Food Intake,[1]; [14],143.9 ± 13.2 g/kg BW/day
same,Water Intake,[1]; [14],207.3 ± 23.6 ml/kg BW/day
same,Body Weight Gain,[1]; [15],0.6 ± 0.2 g
same,Food Intake,[1]; [15],129.9 ± 11.1 g/kg BW/day
same,Water Intake,[1]; [15],211.6 ± 23.6 ml/kg BW/day
same,Body Weight Gain,[1]; [16],1.0 ± 0.3 g
same,Food Intake,[1]; [16],133.1 ± 9.5 g/kg BW/day
same,Water Intake,[1]; [16],211.9 ± 21.5 ml/kg BW/day
same,Body Weight Gain,[1]; [17],0.6 ± 0.1 g
same,Food Intake,[1]; [17],130.0 ± 13.2 g/kg BW/day
same,Water Intake,[1]; [17],216.1 ± 21.0 ml/kg BW/day
same,Body Weight Gain,[1]; [18],2.3 ± 0.7 g
same,Food Intake,[1]; [18],126.5 ± 13.2 g/kg BW/day
same,Water Intake,[1]; [18],215.9 ± 15.2 ml/kg BW/day
same,Body Weight Gain,"[1]; Ob/ob mice, 20 mg/L AA plus 10 mg/L zinc and 0.5 mg/L L-histidine",2.6 ± 0.4 g
same,Food Intake,[1]; [19],107.5 ± 9.0 g/kg BW/day
same,Water Intake,[1]; [19],182.9 ± 12.4 ml/kg BW/day
same,Body Weight Gain,[1]; [20],2.4 ± 1.7 g
same,Food Intake,[1]; [20],114.4 ± 9.9 g/kg BW/day
same,Water Intake,"[1]; Ob/ob mice, 50 mg/L AA plus 10 mg/L zinc and 0.5 mg/L L-histidine, p < 0.05 vs 0 mg/l group",188.7 ± 11.5 ml/kg BW/day
same,Body Weight Gain,[1]; [21],2.9 ± 0.5 g
same,Food Intake,[1]; [21],116.0 ± 12.0 g/kg BW/day
same,Water Intake,"[1]; Ob/ob mice, 100 mg/L AA plus 10 mg/L zinc and 0.5 mg/L L-histidine, p < 0.05 vs 0 mg/l group",198.9 ± 15.3 ml/kg BW/day
same,water and food intake,[1]; lean mice,no treatment effect
same,Food intake versus those treated with only zinc and L-histidine,"[1]; obese mice, 20 mg/L AA plus zinc, p<0.05",significantly lower
same,Water intake versus those given only zinc and L-histidine,"[1]; obese mice, 20, 50 or 100 mg AA/l, p<0.05",significantly lower
same,body weight,[1]; obese or lean mice,no effect
same,water intake reduced relative to DW-treated rats,[2]; AA-only treatment (20 mg/L AA),not
same,intestinal zinc absorption,"[3]; high doses of AA, above 1.0 mg/200 g body weight",increased
same,intestinal zinc absorption,[3]; low doses of AA (0.5 mg/200 g),decreased
same,zinc uptake (rate) of intestinal segments,"[4]; jejunal / isolated intestinal segments of diabetic rats, AA added to the segment-bathing medium",increased significantly
same,zinc transport rate into the circulatory system,[4]; jejunal segments of diabetic rats,did not enhance
same,Water Intake,[5]; diabetic G-K rats,significantly reduced
same,optimal concentration of AA required to provide improved blood glucose levels,[5]; diabetic G-K rats,4.0 mg/day/kg
same,water consumption rates,"[5]; diabetic rats, higher doses of AA",significantly decreased
same,optimal concentration of AA required to provide improved blood glucose levels,[5]; streptozotocin induced diabetic rats,11 mg/day/kg
same,Water Intake,[5]; streptozotocin-induced diabetic rats,significantly reduced
same,Water Intake,[6]; genetically obese mice,significantly reduced
same,optimal concentration of AA required to provide improved blood glucose levels,[6]; obese mice,2.0 mg/day/kg
"O=C1N[C@@H](Cc2cnc[nH]2)C(=O)N2CCC[C@@H]12 [CHP, cyclo-Hispro]",Body Weight Gain,[7]; [22],1.5 ± 0.4 g
same,Food Intake,[7]; [22],171.7 ± 12.5 g/kg BW/day
same,Water Intake,[7]; [22],267.1 ± 22.7 ml/kg BW/day
same,Body Weight Gain,[7]; [23],1.3 ± 0.5 g
same,Food Intake,[7]; [23],159.6 ± 7.3 g/kg BW/day
same,Water Intake,[7]; [23],258.2 ± 21.8 ml/kg BW/day
same,Body Weight Gain,[7]; [24],2.2 ± 0.9 g
same,Food Intake,[7]; [24],180.6 ± 19.5 g/kg BW/day
same,Water Intake,[7]; [24],302.5 ± 27.2 ml/kg BW/day
same,Body Weight Gain,[7]; [25],4.3 ± 0.8 g
same,Food Intake,[7]; [25],128.3 ± 7.8 g/kg BW/day
same,Water Intake,[7]; [25],198.2 ± 13.5 ml/kg BW/day
same,Food Intake,[7]; [26],110.6 ± 10.3 g/kg BW/day
same,Water Intake,[7]; [26],160.4 ± 9.7 ml/kg BW/day
same,Body Weight Gain,"[7]; Ob/ob mice, 1.0 mg/L CHP plus 10 mg/L zinc and 0.5 mg/L L-histidine, p < 0.05 vs 0 or 0.5 mg CHP/L",2.3 ± 0.8 g
same,Body Weight Gain,[7]; [27],3.8 ± 0.9 g
same,Food Intake,[7]; [27],120.7 ± 10.4 g/kg BW/day
same,Water Intake,[7]; [27],192.5 ± 16.8 ml/kg BW/day
same,Water and food intake relative to the other treatment groups,"[7]; ob/ob mice, 1.0 mg CHP plus zinc and L-histidine, difference not significant",lowest
same,Body weight gain relative to those given zinc and L-histidine only,"[7]; ob/ob mice, 1.0 mg CHP/L plus zinc and L-histidine, P<0.05",significantly reduced
same,Plasma Insulin Levels (mean ± SEM),[8]; CHP only 1.0 mg/L in drinking water,0.907 ± 0.090 ng/mL
same,plasma insulin levels,"[8]; hyperinsulinemic diabetic G-K rats, higher / increasing doses of CHP",decreased
same,Water Intake,[9]; intraventricular administration,significantly reduces
same,Food Intake,"[9]; rats, CHP intake",decreases
same,Food Intake,[10],decreases
[Zn] [zinc],Plasma Insulin Levels (mean ± SEM),[8]; zinc only 10 mg/L in drinking water,0.637 ± 0.048 ng/mL
same,Water Intake,[2]; 10 mg/L zinc only,significantly decreased
same,growth rates,[11],not affected
same,Water Intake,[12]; 1.0-month-old rats,not affected
same,Water intake compared to distilled water (DW) treated rats,"[12]; 10 month old G-K rats, P<0.01, FIG. 8",significantly lower
same,water intakes,[13],significantly decreased
